In patent publication EP4474016A1, “STRATEGIES TO TARGET EXTRACELLULARLY ACCESSIBLE RAS PROTEIN” (Julius-Maximilians-Universität Würzburg, priority 2023, dated 2024):

Columns and labels:
[1] = system: human Multiple Myeloma cell lines MM.1S; assay: in vitro killing assay of anti-Ras bispecific antibody alone or in combination with Lenalidomide (luciferase read-out); type: cell-based; settings: MM1.S, Lenalidomide 1.5 µM alone, compared to the cells without Lenalidomide
Method: (§1) The anti-Ras bispecific antibody constructs SFV02_PCC06 (SEQ ID No 75 + 76) was tested in cell culture against the human Multiple Myeloma cell lines MM.1S and the human acute monocytic leukemia cell line MV4-11. The MM. 1S and MV4-11 cells are luziferase positive and were seeded into 96-well cell culture plates (for each cell line 7500 cells in 50 µL per well in 150 µL medium) in the corresponding medium (Table 1) and incubated at 37°C and 5% CO2 for 24 hours. The next day, fresh human CD3+/CD8+ T-cells were added to each well, for a final tumour cell to T cells ratio of 1 to 5. Two dilution series were prepared of the SFV02_PCC06 antibody: (i) A final concentration of 25 nM, 12.5 nM, 6.25 nM and 3.125 nM (Figure 15), and (ii) a final concentration of 15 nM, 7.5 nM, 3.75 nM, 1.87 nM, 0.93 nM, 0.46 nM, 0.23 nM and 0.11 nM (Figure 16). From the antibody dilution series, 20 µL was added to each respective well.
(§2) To test if chemical compounds can improve and/or increase the bi-specific anti Ras antibody directed killing of tumours cells, two compounds were tested. […] Afterwards, the bioluminescence of the firefly-luciferase was measured, using a Tecan Spark plate reader (with an absorbance scan from 350 nm to 700 nm with an integration time interval of 1000 ms).

[2] = system: aberrant expressed Ras on the cell surface; assay: cell-based ELISA of aberrant Ras protein on the cell surface under normal and stress conditions; design: species or system human; settings: versus complete medium; for aberrant Ras expression on the cell surface: Lenalidomide 1.5µM overnight
Method: For the cell-based ELISA, different adherent cell lines (AsPC-1, Panc-1, SK-BR-3 and BT-474) were used. First, the cell culture medium was removed, and the cells were washed one time with PBS. After washing, 2 ml of […] Trypsin-EDTA (Gibco, #25300054) was added to trypsinise the cells for 3 min at 37°C. Then, 13 ml of complete medium (Table 1) was added to stop the trypsinisation process. Cell numbers were count via Trypan Blue staining and 30.000 viable cells in 50 µl were seeded out per well, in a 96-well tissue culture plate at 37°C and 5% CO2. After overnight adhesion of the cells, three different mechanisms to induce cellular stress on the tumour cells were tested: (i) addition of 0,5% DMSO in the cell culture medium, (ii) adding 1,5 µM Lenalidomide in the cell culture medium, (iii) or replacement of the complete medium by cell culture medium without supplemented FBS for serum-starvation. As normal control, for cells not under additional cellular stress, cells were left in complete medium. The stress-induction was performed overnight at 37°C and 5% CO2. The next day, to reduce unspecific binding of detection antibody to the plastic of the cell culture plate, each well was filled up to the top with 50% FBS in PBS, carefully pipette on top of the incubation medium, and incubated for 30 minutes at 37°C. Then, the all medium was discarded from the wells and 50 µl of 1:100-diluted FcR Blocking Reagent (MACS Miltenyi #130-059-901) was added to each well to avoid unspecific binding by blocking of the Fc-Receptors on the tumour cells. […]
The HRP-reaction was stopped after sufficient colour development by adding 50 µl of stop solution (1 N Sulfuric Acid) to each well. Finally, the absorbance was measured in each well at a wavelength of 450 nm and a reference wavelength of 630 nm with a Tecan SPARK® multimode-mikroplate-reader. The absorbance values from the unspecific HRP-labelled control samples (samples without primary antibody but with corresponding HRP labelled secondary antibody), were used for the zero baseline model and set at 0 (Figure 19 and 20).

[3] = system: human acute monocytic leukemia cell line MV4-11; assay: in vitro killing assay of anti-Ras bispecific antibody alone or in combination with DMSO (luciferase read-out); type: cell-based; settings: alone, read-out: viability drop of MV4-11 cells
Method: as §1, §2

Structure (SMILES) | percent drop in cell viability at 1.5 µM [1] | aberrant Ras expression on the cell surface ([2]; AsPc-1 cells) | aberrant Ras expression on the cell surface ([2]; SK-BR-3 cells) | viability drop at 70.4 µM [3] | aberrant Ras protein on the cell surface ([2]; the four solid tumour cells (AsPC-1, Panc-1, MS-18, SK-BR-3), DMSO 0.5% (v/v))
Nc1cccc2c1CN(C1CCC(=O)NC1=O)C2=O (centres unmarked) [Lenalidomide] | 25% | up-regulating | up-regulating |  | 
C[S+](C)[O-] [DMSO, Dimethyl Sulfoxide] |  |  |  | 30% | down-regulating
